The source of these data is US11850313B2, “Method and compositions for protecting tissue” (The London Health Sciences Centre Research Inc., priority 2019, dated 2023).

The subject of data set [1] is DCD porcine kidneys. Description: Ex vivo perfusion of DCD porcine kidneys with autologous blood (SMP/NMP), then reperfusion with stressed blood at 37° C. Also on record: species or system Pigs. Here is the method:
Pigs were tranquilized prior to transport to the Canadian Surgical Technologies & Advanced Robotics facility (CSTAR, University Hospital, London, Canada). Upon arrival at CSTAR, the animals were prepared for surgery as per SOP. A midline incision was used to expose the kidneys. The right and left kidneys with their ureters were dissected free from the retro peritoneum while leaving the blood supply to the ureter intact and then the ureter was divided. The renal vascular pedicles were left as long as possible by freeing the renal artery and vein up to the aorta and vena cava. The pedicles were clamped for 30 minutes to induce warm ischemia in the donor organs following intravenous infusion of 3000 units of heparin. The injury inflicted is likely greater than that of conventional DCD kidneys after withdrawal of life support as the blood supply is cutoff completely by clamping, which is more harmful than the gradual ischemic injury that occurs during cardiac death. Subsequently, nephrectomies of the left and right kidney were performed and the donor animal was euthanized. […]
The kidneys were randomly assigned to one of four preservation treatments. […] Blood, urine and tissue samples were collected and analyzed as described in the next subsection.
Blood and urine samples were collected hourly during the 4 h preservation perfusion with non-stressed blood and during the 4 h reperfusion with stressed blood to evaluate graft function over time. Hourly urine output was recorded, and total urine samples were also collected from both perfusion periods. Pictures of the kidney, urine bags and blood flow and pressure readings were taken hourly. […] During the perfusion periods, we closely monitored pump parameters (flow and pressure) to ensure optimal graft function. […] The total TUNEL+ area (%) was quantified for 10 random fields of view for 2 kidney samples per treatment group using ImageJ software v 1.50 (National Institutes of Health, USA). The total tubular area and TUNEL+ tubular area, used to calculate the TUNEL+ area (%), were determined by adjusting the brightness and saturation thresholds. […]

Data set [2] concerns oxidatively stressed endothelial cells. The following applies: including protection against oxidative mitochondrial DNA damage; cited from earlier work.
For another data set, the system named is donor kidneys. Description: Static cold storage (4° C.) of donor kidneys in UW solution supplemented with AP39. The following applies: AP39 added to UW / cold preservation solution, applicant's earlier work.
For the next data set, the system named is kidney. The settings on record: AP39 supplementation of UW solution, 21° C.; cited from earlier work.
Data set [3] has as its system DCD porcine kidneys. Description: Ex vivo subnormothermic perfusion of DCD porcine kidneys with Hemopure® at 21° C. followed by blood-free reperfusion at 37° C. Also on record: species or system Pigs. The settings on record: for tissue oxygenation during preservation: 21° C., vs SCS (FIG. 4A); for urine output during preservation: 4 h perfusion at 21° C., vs Hemopure® alone (FIG. 3A). The source says: Pigs weighing 55-65 kg were used for this study. The animals were maintained in accordance with the Committee on the Care and Use of Laboratory Animals appointed by the National Research Council. The animals were housed at the animal facility in the West Valley Building, which is managed by the Animal Care and Veterinary Services Department at The University of Western Ontario. The experimental protocol and housing conditions followed the guidelines of the university's Animal Care Committee and the Canadian Council on Animal Care.
Pigs were tranquilized prior to transport to the Canadian Surgical Technologies & Advanced Robotics facility (CSTAR, University Hospital, London, Canada). Upon arrival at CSTAR, the animals were prepared for surgery as per SOP. A midline incision was used to expose the kidneys. The right and left kidneys with their ureters were dissected free from the retro peritoneum while leaving the blood supply to the ureter intact and then the ureter was divided. The renal vascular pedicles were left as long as possible by freeing the renal artery and vein up to the aorta and vena cava. The pedicles were clamped for 30 minutes to induce warm ischemia in the donor organs following intravenous infusion of 10000 units of heparin. The injury inflicted is likely greater than that of conventional DCD kidneys after withdrawal of life support as the blood supply is cutoff completely by clamping, which is more harmful than the gradual ischemic injury that occurs during cardiac death. Subsequently, nephrectomies of the left and right kidney were performed and the donor animal was euthanized. All the surgeries were performed by transplant fellows at University Hospital, London, Ontario, Canada.
The kidneys were randomly assigned to one of five preservation treatments. The first group of kidneys were flushed with and stored in HTK solution on ice for 4 h (SCS), which reflects the current clinical standard of care for organ preservation. The second group of kidneys were flushed with HTK solution and treated to 4 h of subnormothermic perfusion at 21° C. with Hemopure®. The third group of kidneys were flushed with HTK solution supplemented with 200 nM AP39 and treated to 4 h of subnormothermic perfusion at 21° C. with Hemopure® supplemented with 200 nM AP39. The fourth group of kidneys were flushed with HTK solution supplemented with 1 μM AP39 and treated to 4 h of subnormothermic perfusion at 21° C. with Hemopure® supplemented with 1 μM AP39. The fifth group of kidneys were flushed with HTK solution supplemented with 150 μM STS and treated to 4 h of subnormothermic perfusion at 21° C. with Hemopure® supplemented with 150 μM STS. After the 4 h preservation period, all kidneys were perfused with Hemopure® for 4 h at 37° C. with nutrients to simulate reperfusion after renal transplantation. The kidneys were perfused using an ex vivo perfusion apparatus (FIG. 4). The perfusion pressure was maintained at 50 mmHg. Hemopure® samples were analyzed hourly. The perfusate was oxygenated using an external mixed air supply (35% O2, 2 L/min). After reperfusion with stressed blood, kidneys were bivalved sagittally. One half was stored at −80° C. for mechanistic analyses and the other half was stored in formalin for histopathological analyses.
Hemopure® and urine samples were collected hourly during the 4 h preservation perfusion and during the 4 h reperfusion to evaluate graft function over time. Electrolyte levels, lactate levels and gas levels in the perfusate were measured hourly using the iSTAT point-of-care testing system. Hourly urine output was recorded, and total urine samples were also collected from both perfusion periods. Pictures of the kidney, urine bags and flow and pressure readings were taken hourly. Tissue oxygenation was also measured hourly. During both perfusion periods, we closely monitored pump parameters (flow and pressure) to ensure optimal graft function. […]

The conditions of data set [4]: 500 ppm; cited from earlier work.

With `O=C(CCCCCCCCC[P+](c1ccccc1)(c1ccccc1)c1ccccc1)Oc1ccc(-c2cc(=S)ss2)cc1.[Br-]` [AP39], in the data set with DCD porcine kidneys [1] (200 nM AP39 in non-stressed blood at 21° C. (SMP-AP39-21C), vs SMP-21C and NMP-37C (FIG. 9A)), the “urine output during 4 h of preservation” value was “significantly higher”. Besides, in the data set on DCD porcine kidneys [1] (AP39-supplemented blood at 21° C., vs cold storage in UW and perfusion with only blood at 21° C. and 37° C.), the graft function result was “improves graft function”. In addition, the “urine output during 4 h of reperfusion with stressed blood” value in the data set on DCD porcine kidneys [1] (preserved with SMP-AP39-21C, vs SCS-4C, SMP-21C, NMP-37C (FIG. 9B)) is on record as “significantly higher”. Besides, the “protective effect under oxidative stress conditions” value in data set [2] is “cryoprotective effect”. Further, the graft outcomes in the data set on donor kidneys is on record as “improves renal graft outcomes”. Moreover, the kidney preservation result in the data set with kidney is “improves kidney preservation”. Further, in the data set on DCD porcine kidneys [3] (200 nM AP39 in Hemopure®), the “tissue oxygenation during preservation” value is listed as “higher tissue oxygenation than SCS” and the “urine output during preservation” value is “significantly higher”. The “apoptotic tissue injury (TUNEL score)” value with DCD porcine kidneys [3] (200 nM AP39 in Hemopure®, after reperfusion, vs Hemopure® and Hemopure®+1 μM AP39 (FIGS. 6A-6F)) was “reduced apoptotic tissue injury”. Also, in the data set on DCD porcine kidneys [3] (1 μM AP39 in Hemopure®), the “urine output during preservation” value is given as “significantly higher”. For the same molecule, in the data set with DCD porcine kidneys [3] (preserved with 200 nM AP39 in Hemopure® at 21° C., 4 h reperfusion at 37° C., vs Hemopure® kidneys (FIG. 3B)), the “urine output during reperfusion” value was “significantly higher”.
Take `O.O.O.O.O.O=S([O-])([O-])=S.[Na+].[Na+]` [STS, sodium thiosulfate (STS) pentahydrate]: in the data set on DCD porcine kidneys [3] (150 μM STS in Hemopure®), the “tissue oxygenation during preservation” value was “higher tissue oxygenation than SCS” and the “urine output during preservation” value is “significantly higher”.
Regarding `S` [H2S, Hydrogen sulfide], the “effect of exposure to extreme levels” value in data set [4] is “sudden collapse and unconsciousness”.
